These results are taken from ChEMBL document CHEMBL1146693, “Design and SAR of thienopyrimidine and thienopyridine inhibitors of VEGFR-2 kinase activity” (Bioorg Med Chem Lett, 2004).

pIC50: −log10 of the molar value. Values joined by “and” are separate entries in the source; they are usually repeats but may differ in a detail not shown here. Equal values may be shown once.

This assay has as its target Epidermal growth factor receptor (Homo sapiens, UniProt P00533). Description: Inhibitory activity against epidermal growth factor receptor.

Broadly, the pIC50 is the IC50 on a negative log10 scale, so that one unit is a factor of ten. Low values mean a high IC50, high ones a low IC50.

Sequence of Epidermal growth factor receptor (P00533 whole entry): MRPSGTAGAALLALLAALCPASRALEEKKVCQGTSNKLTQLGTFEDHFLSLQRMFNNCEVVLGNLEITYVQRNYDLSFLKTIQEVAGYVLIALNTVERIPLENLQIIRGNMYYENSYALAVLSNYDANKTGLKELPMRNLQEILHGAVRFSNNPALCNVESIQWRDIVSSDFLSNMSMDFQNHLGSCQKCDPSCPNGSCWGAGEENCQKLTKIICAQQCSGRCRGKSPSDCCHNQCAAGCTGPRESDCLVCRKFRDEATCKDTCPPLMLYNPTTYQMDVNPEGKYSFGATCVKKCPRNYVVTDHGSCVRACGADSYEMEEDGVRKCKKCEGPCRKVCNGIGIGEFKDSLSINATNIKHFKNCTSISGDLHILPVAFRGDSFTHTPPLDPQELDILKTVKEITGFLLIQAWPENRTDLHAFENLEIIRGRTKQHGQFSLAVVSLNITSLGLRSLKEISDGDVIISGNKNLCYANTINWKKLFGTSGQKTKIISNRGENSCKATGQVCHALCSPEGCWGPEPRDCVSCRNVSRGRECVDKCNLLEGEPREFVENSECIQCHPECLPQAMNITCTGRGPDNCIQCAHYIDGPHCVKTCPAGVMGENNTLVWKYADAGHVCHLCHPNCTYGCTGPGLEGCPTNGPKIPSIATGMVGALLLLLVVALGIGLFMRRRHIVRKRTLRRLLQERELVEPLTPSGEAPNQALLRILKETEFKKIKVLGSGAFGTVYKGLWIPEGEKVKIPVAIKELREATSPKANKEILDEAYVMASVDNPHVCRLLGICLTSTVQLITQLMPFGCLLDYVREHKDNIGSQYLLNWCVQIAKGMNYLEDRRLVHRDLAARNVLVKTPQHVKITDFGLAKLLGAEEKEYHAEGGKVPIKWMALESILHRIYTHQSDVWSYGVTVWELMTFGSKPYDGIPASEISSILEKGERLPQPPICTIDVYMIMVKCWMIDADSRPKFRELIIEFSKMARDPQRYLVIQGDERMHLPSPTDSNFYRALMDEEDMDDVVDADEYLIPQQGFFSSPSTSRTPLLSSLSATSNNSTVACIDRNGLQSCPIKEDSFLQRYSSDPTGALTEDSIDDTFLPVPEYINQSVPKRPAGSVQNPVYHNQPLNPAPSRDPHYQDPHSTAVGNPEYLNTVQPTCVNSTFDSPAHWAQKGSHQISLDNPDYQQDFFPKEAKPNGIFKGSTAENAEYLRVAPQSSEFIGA

For `CC(C)(CO)NCc1ccc(-c2cc3ncnc(Nc4ccc5[nH]ccc5c4)c3s2)cc1`, the pIC50 was 9.00 and 8.10.

`OCCNCc1ccc(-c2cc3nccc(Nc4ccc5[nH]ccc5c4)c3s2)cc1` showed a pIC50 of 8.70.

`Cc1c[nH]c2ccc(Nc3ncnc4cc(-c5ccccc5)sc34)cc12` gave a pIC50 of 8.30.

In the case of `c1csc(-c2cc3nccc(Nc4ccc5[nH]ccc5c4)c3s2)c1`, the pIC50 was 9.00.

Take `NC(=O)C1CCN(Cc2ccc(-c3cc4ncnc(Nc5ccc6[nH]ccc6c5)c4s3)cc2)CC1`: the pIC50 is 8.15.

For `Cc1cc2cc(Nc3ccnc4cc(-c5ccc(CN6CCOCC6)cc5)sc34)ccc2[nH]1`, the negative-log IC50 (pIC50) is 5.90.

`c1cc(Nc2ccc3[nH]ccc3c2)c2sc(-c3ccc(CN4CCOCC4)cc3)cc2n1` showed a pIC50 of 7.52.

In the case of `OCc1ccc(-c2cc3ncnc(Nc4ccc5[nH]ccc5c4)c3s2)cc1`, the pIC50 is 9.00.

On to `c1ccc(CCCN(c2cc3ncnc(Nc4ccc5[nH]ccc5c4)c3s2)n2ccnc2)cc1`, for which the pIC50 is 8.30 and 9.00.

In the case of `CC(=O)NCCNCc1ccc(-c2cc3nccc(Nc4ccc5[nH]ccc5c4)c3s2)cc1`, the pIC50 is 8.70.

`NC(=O)C1CCN(Cc2ccc(-c3cc4nccc(Nc5ccc6[nH]ccc6c5)c4s3)cc2)CC1` had a pIC50 of 9.00.

Turning to `c1nc(Nc2ccc3[nH]ccc3c2)c2sccc2n1`, the pIC50 was 6.22.

`Cc1cc2cc(Nc3ccnc4cc(-c5ccc(CNCCOCCO)cc5)sc34)ccc2[nH]1` had a pIC50 of 6.18.

For `OCCCNCc1ccc(-c2cc3nccc(Nc4ccc5[nH]ccc5c4)c3s2)cc1`, the pIC50 is 8.05.

`NCc1ccc(-c2cc3ncnc(Nc4ccc5[nH]ccc5c4)c3s2)cc1` had a pIC50 of 8.40.

`c1ccc(-c2cc3ncnc(Nc4ccc5[nH]ncc5c4)c3s2)cc1`: the pIC50 is 5.80.

In the case of `Cc1cc2cc(Nc3ccnc4cc(-c5ccc(CNCCCO)cc5)sc34)ccc2[nH]1`, the pIC50 is 6.30.

On to `CN(CCO)Cc1ccc(-c2cc3nccc(Nc4ccc5[nH]ccc5c4)c3s2)cc1`, for which the pIC50 is 8.52.

The compound `c1ccc(NCCN(c2cc3ncnc(Nc4ccc5[nH]ccc5c4)c3s2)n2cccc2)cc1` gave a pIC50 of 9.00.

In the case of `Cc1cc2cc(Nc3ccnc4cc(-c5ccc(CNCCO)cc5)sc34)ccc2[nH]1`, the pIC50 is 6.00.

For `Cc1cc2cc(Nc3ncnc4cc(-c5ccccc5)sc34)ccc2[nH]1`, the pIC50 was 7.00.

Turning to `c1cc(Nc2ccc3[nH]ccc3c2)c2sc(-c3ccc(CNCCN4CCNCC4)cc3)cc2n1`, the pIC50 was 8.52.

`NC(=O)c1ccc(Nc2ncnc3cc(-c4ccccc4)sc23)cc1` gave a pIC50 below 6.00.

Turning to `CC(=O)NCCNCc1ccc(-c2cc3ncnc(Nc4ccc5[nH]ccc5c4)c3s2)cc1`, the pIC50 is 8.30.

Take `Cc1cc2cc(Nc3ccnc4cc(-c5ccc(CN(C)CCO)cc5)sc34)ccc2[nH]1`: the pIC50 was 6.85.
